Tests used:
[1] = target: T1, κ-opioid receptor (Homo sapiens (Human), UniProt P41145); experiment: κ-opioid receptor radioligand dose-displacement binding assay ([3H]-U69,593); settings: binding affinity, HEK-293 or CHO cells
Procedure: Membranes from recombinant HEK-293 cells, CHO or U-2 OS cells expressing the recombinant human κ opioid receptor (κ) were prepared by lysing cells in ice cold hypotonic buffer (2.5 mM MgCl2, 50 mM HEPES, pH 7.4) (10 mL/10 cm dish) followed by homogenization with a tissue grinder/Teflon pestle. Membranes from a cell line naturally expressing kappa opioid receptors can also be used. Membranes were collected by centrifugation at 30,000×g for 15 min at 4° C. and pellets were resuspended in hypotonic buffer to a final concentration of 1-3 mg/mL. Protein concentrations were determined using the BioRad protein assay reagent with bovine serum albumen as standard. Aliquots of κ receptor membranes were stored at −80° C.
Radioligand dose displacement assays used 0.4 nM [^3H]-U69,593 (GE Healthcare, Piscataway, N.J.; 40 Ci/mmole) with 15 μg membrane protein (recombinant K opioid receptor expressed in HEK 293 cells; in-house prep) in a final volume of 200 μl binding buffer (5% DMSO, 50 mM Trizma base, pH 7.4). Non-specific binding was determined in the presence of 10 μM unlabeled naloxone or U69,593. All reactions were performed in 96-well polypropylene plates for 1 hr at a temperature of about 25° C. Binding reactions were terminated by rapid filtration onto 96-well Unifilter GF/C filter plates (Perkin Elmer, Shelton, Conn.) presoaked in 0.5% polyethylenimine (Sigma). Harvesting was performed using a 96-well tissue harvester (Perkin Elmer, Shelton, Conn.) followed by five filtration washes with 200 μl ice-cold binding buffer. Filter plates were subsequently dried at 50° C. for 1-2 hours. Fifty μl/well scintillation cocktail (Perkin Elmer, Shelton, Conn.) was added and plates were counted in a Packard Top-Count for 1 min/well.
In TABLE 3, binding affinity of certain Compounds of the Invention to the ORL-1, μ-, and κ-opioid receptors was determined as described above in HEK-293 or CHO cells.

[2] = target: μ-opioid receptor (Homo sapiens (Human), UniProt P35372); experiment: μ-opioid receptor [35S]GTPγS functional assay, HEK-293 or CHO cells; assay type: biochemical; settings: HEK-293 or CHO cells; for EC50: read-out: GTPγS μ EC50; for Emax: relative to DAMGO
How it was run: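 Membranes from recombinant human μ-opioid receptor cells (HEK-293, CHO or U-2 OS) at 0.026 mg/mL with saponin, […] and 0.20 nM [35S]GTPγS in HEPES buffer pH 7.4, incubated 30 min at about 25 °C; bound radioactivity by filtration. EC50 from sigmoidal fit; Emax relative to DAMGO.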

[3] = target: T1, κ-opioid receptor; experiment: κ-opioid receptor [35S]GTPγS functional assay, HEK-293 or CHO cells; assay type: biochemical
Procedure: Functional [^35S]GTPγS binding assays were conducted as follows. K opioid receptor membrane solution was prepared by sequentially adding final concentrations of 0.026 μg/μl κ membrane protein (in-house), 10 μg/mL saponin, 3 μM GDP and 0.20 nM [^35S]GTPγS to binding buffer (100 mM NaCl, 10 mM MgCl2, 20 mM HEPES, pH 7.4) on ice. The prepared membrane solution (190 μl/well) was transferred to 96-shallow well polypropylene plates containing 10 μl of 20× concentrated stock solutions of agonist prepared in DMSO. Plates were incubated for 30 min at a temperature of about 25° C. with shaking. Reactions were terminated by rapid filtration onto 96-well Unifilter GF/B filter plates (Perkin Elmer, Shelton, Conn.) using a 96-well tissue harvester (Packard) and followed by three filtration washes with 200 μl ice-cold binding buffer (10 mM NaH2PO4, 10 mM Na2HPO4, pH 7.4). Filter plates were subsequently dried at 50° C. for 2-3 hours. Fifty μl/well scintillation cocktail (Perkin Elmer, Shelton, Conn.) was added and plates were counted in a Packard Top-Count for 1 min/well.
κ GTP EC50 is the concentration of a compound providing 50% of the maximal response for the compound at a κ receptor. […]
In TABLE 4, activity response of certain Compounds of the Invention to the μ- and κ-opioid receptors was determined as described above for functional assays using HEK-293 or CHO cells.

SMILES	Ki ([1]; bound given in uM) [µM]	EC50 [2] [nM]	Emax [2] [%]	Ki [1] [µM]	EC50 ([3]; bound given in uM) [µM]	Emax ([3]; relative to U69,593) [%]
CC(C)S(=O)(=O)N1CCC(CN(C)[C@H]2[C@H]3Cc4ccc(O)cc4[C@]2(C)CCN3C)CC1 [Compound 55, (2R,6S,11R)-11-(((1-(isopropylsulfonyl)piperidin-4-yl)methyl)(methyl)amino)-3,6-dimethyl-1,2,3,4,5,6-hexahydro-2,6-methanobenzo[d]azocin-8-ol]	> 20	3.28 ± 0.39	52 ± 4.85	–	–	–
CN1CC[C@@]2(C)c3cc(O)ccc3C[C@@H]1[C@@H]2NCCc1ccc(S(C)(=O)=O)cc1 [Compound 10, (2R,6S,11R)-3,6-dimethyl-11-((4-(methylsulfonyl)phenethyl)amino)-1,2,3,4,5,6-hexahydro-2,6-methanobenzo[d]azocin-8-ol]	–	225 ± 60.8	38.5 ± 2.33	0.301 ± 0.00979	> 20	1
CN1CC[C@@]2(C)c3cc(O)ccc3C[C@@H]1[C@@H]2N(C)CC1CCN(CC(C)(C)O)CC1 [Compound 97, (2R,6S,11R)-11-(((1-(2-hydroxy-2-methylpropyl)piperidin-4-yl)methyl)(methyl)amino)-3,6-dimethyl-1,2,3,4,5,6-hexahydro-2,6-methanobenzo[d]azocin-8-ol]	–	22.6 ± 2.34	47 ± 1.53	0.00212 ± 0.00055	–	–
